This test concerns the target T1, BRM (Homo sapiens, UniProt P51531).
T1 construct: In-Cell Western Screen of BRM Degradation in SW1573 Cells; endogenous in cells; host or cells: SW1573
Nature of the test: In-cell Western screen of BRM degradation in SW1573 cells (Dmax and DC50). The test is classed as cell-based. In a few lines: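 SW1573, overnight cpd exposure (18-20 h), 0.1% DMSO final. PFA fix, 0.5% Triton permeabilization, block; IR secondaries at 800/680 nm. Odyssey read → Dmax, DC50.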

The mark [1] stands for this setting: BRM degradation, SW1573 cells, read-out: DC50.
Setting [2] is: BRM degradation, SW1573 cells, tested at the top concentration of between 0.3 and 10 μM, read-out: Dmax (%) (% degraded).
[3] abbreviates: BRM degradation, SW1573 cells, when tested at the top concentration of between 0.3 and 10 μM, read-out: Dmax (%) (% degraded).

Structures are written as SMILES. Read-outs that look alike come from different tables or passages of the source.

T1 sequence (P51531 whole entry): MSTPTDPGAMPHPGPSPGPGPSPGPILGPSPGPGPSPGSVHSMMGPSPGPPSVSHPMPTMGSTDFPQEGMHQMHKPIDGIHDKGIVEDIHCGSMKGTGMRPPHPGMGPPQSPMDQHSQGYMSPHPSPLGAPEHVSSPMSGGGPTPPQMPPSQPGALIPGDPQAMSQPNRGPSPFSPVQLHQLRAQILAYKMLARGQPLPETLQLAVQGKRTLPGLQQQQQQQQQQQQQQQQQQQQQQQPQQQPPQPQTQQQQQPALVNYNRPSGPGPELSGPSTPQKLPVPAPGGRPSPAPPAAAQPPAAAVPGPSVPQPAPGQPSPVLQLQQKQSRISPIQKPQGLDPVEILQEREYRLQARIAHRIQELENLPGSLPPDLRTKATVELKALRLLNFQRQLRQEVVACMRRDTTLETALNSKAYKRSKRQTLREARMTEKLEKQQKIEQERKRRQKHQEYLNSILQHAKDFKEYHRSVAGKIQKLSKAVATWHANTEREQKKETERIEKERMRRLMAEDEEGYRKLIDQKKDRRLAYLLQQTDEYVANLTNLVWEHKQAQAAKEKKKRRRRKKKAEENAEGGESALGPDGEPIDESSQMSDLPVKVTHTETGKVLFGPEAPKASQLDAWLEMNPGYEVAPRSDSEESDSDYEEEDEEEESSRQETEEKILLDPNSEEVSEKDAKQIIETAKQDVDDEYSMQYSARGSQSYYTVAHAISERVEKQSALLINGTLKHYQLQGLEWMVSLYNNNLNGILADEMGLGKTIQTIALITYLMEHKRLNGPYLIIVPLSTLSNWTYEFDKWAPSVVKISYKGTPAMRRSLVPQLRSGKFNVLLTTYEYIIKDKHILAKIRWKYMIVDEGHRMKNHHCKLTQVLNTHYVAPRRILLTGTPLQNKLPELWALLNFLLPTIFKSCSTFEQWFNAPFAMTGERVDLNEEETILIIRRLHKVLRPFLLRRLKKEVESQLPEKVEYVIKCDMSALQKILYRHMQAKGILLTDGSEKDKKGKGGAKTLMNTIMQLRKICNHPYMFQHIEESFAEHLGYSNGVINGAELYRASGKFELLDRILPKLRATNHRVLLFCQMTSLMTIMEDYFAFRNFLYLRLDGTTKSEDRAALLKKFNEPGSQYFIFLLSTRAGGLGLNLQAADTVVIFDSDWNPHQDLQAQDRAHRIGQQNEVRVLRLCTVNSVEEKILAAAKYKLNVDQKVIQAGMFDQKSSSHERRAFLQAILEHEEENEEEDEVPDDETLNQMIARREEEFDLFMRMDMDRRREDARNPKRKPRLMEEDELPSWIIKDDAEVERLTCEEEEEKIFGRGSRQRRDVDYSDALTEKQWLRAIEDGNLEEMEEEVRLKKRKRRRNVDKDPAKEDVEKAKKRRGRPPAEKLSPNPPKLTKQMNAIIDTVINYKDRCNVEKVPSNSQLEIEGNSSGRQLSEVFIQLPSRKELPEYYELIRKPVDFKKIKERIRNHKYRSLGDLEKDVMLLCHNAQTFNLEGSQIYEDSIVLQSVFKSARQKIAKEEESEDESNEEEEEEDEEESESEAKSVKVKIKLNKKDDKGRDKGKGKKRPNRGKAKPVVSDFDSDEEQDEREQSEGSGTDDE

As to `Cc1cnnn1-c1ccc([C@H](C)NC(=O)[C@@H]2C[C@@H](O)CN2C(=O)[C@@H](c2cc(OCCN3CCN(CCOc4cc(N5C6CCC5CN(c5cc(-c7ccccc7O)nnc5N)C6)ccn4)CC3)no2)C(C)C)cc1` [compound 275, (2S,4R)-1-((2R)-2-(3-(2-(4-(2-((4-(3-(3-amino-6-(2-hydroxyphenyl)pyridazin-4-yl)-3,8-diazabicyclo[3.2.1]octan-8-yl)pyridin-2-yl)oxy)ethyl)piperazin-1-yl)ethoxy)isoxazol-5-yl)-3-methylbutanoyl)-4-hydroxy-N-((S)-1-(4-(5-methyl-1H-1,2,3-triazol-1-yl)phenyl)ethyl)pyrrolidine-2-carboxamide], the DC50 (as a rule, the midpoint of the concentration-degradation curve) under setting [1] lay within 0.01 to 0.03 µM. Moreover, under setting [2], the Dmax (as a rule, the largest share of the target that was removed) was over 75%.

Regarding `Cc1ncsc1-c1ccc(CNC(=O)[C@@H]2C[C@@H](O)CN2C(=O)[C@@H](NC(=O)COCCOCCOCCOCCOCCOCCOc2cc(N3C4CCC3CN(c3cc(-c5ccccc5O)nnc3N)C4)ccn2)C(C)(C)C)cc1` [compound 8, (2S,4R)-1-((2S)-23-((4-(3-(3-amino-6-(2-hydroxyphenyl)pyridazin-4-yl)-3,8-diazabicyclo[3.2.1]octan-8-yl)pyridin-2-yl)oxy)-2-(tert-butyl)-4-oxo-6,9,12,15,18,21-hexaoxa-3-azatricosanoyl)-4-hydroxy-N-(4-(4-methylthiazol-5-yl)benzyl)pyrrolidine-2-carboxamide], the half-maximal degradation concentration (DC50) under setting [1] fell in the range of 0.01 to 0.03 µM. Further, under setting [3], the Dmax is over 75%.

For `Cc1ncsc1-c1ccc([C@H](C)NC(=O)[C@@H]2C[C@@H](O)CN2C(=O)[C@@H](c2cc(OCCC3CCN(C(=O)[C@H]4C[C@H](Oc5cc(N6C7CCC6CN(c6cc(-c8ccccc8O)nnc6N)C7)ccn5)C4)CC3)no2)C(C)C)cn1` [compound 261, (2S,4R)-1-((2R)-2-(3-(2-(1-((1r,3R)-3-((4-(3-(3-amino-6-(2-hydroxyphenyl)pyridazin-4-yl)-3,8-diazabicyclo[3.2.1]octan-8-yl)pyridin-2-yl)oxy)cyclobutane-1-carbonyl)piperidin-4-yl)ethoxy)isoxazol-5-yl)-3-methylbutanoyl)-4-hydroxy-N-((S)-1-(6-(4-methylthiazol-5-yl)pyridin-3-yl)ethyl)pyrrolidine-2-carboxamide], the 50% degradation concentration (DC50) under setting [1] was under 0.0025 µM. Moreover, the greatest degradation seen (Dmax) under setting [2] is over 75%.

As for `Cc1ncsc1-c1ccc([C@H](C)NC(=O)[C@@H]2C[C@@H](O)CN2C(=O)C(c2cc(OCCN3[C@H](C)C[C@H](O[C@H]4C[C@H](Oc5cc(N6C7CCC6CN(c6cc(-c8ccccc8O)nnc6N)C7)ccn5)C4)C[C@@H]3C)no2)C(C)C)cc1` (mixture of isomers) [compound 635, (2S,4R)-1-(2-(3-(2-((2S,4S,6R)-4-((1r,3R)-3-((4-(3-(3-amino-6-(2-hydroxyphenyl)pyridazin-4-yl)-3,8-diazabicyclo[3.2.1]octan-8-yl)pyridin-2-yl)oxy)cyclobutoxy)-2,6-dimethylpiperidin-1-yl)ethoxy)isoxazol-5-yl)-3-methylbutanoyl)-4-hydroxy-N-((S)-1-(4-(4-methylthiazol-5-yl)phenyl)ethyl)pyrrolidine-2-carboxamide], the DC50 under setting [1] was under 0.0025 µM. Moreover, the Dmax (BRM degradation, SW1573 cells, read-out: Dmax (% degraded)) was over 75%.

For the compound `Cc1ncsc1-c1ccc([C@H](C)NC(=O)[C@@H]2C[C@@H](O)CN2C(=O)[C@@H](c2cc(OCCN3CCC4(CC3)CC(OCCN3CCOC5(CCN(c6cc(-c7ccccc7O)nnc6N)CC5)C3)C4)no2)C(C)C)cc1` [compound 93, (2S,4R)-1-((R)-2-(3-(2-(2-(2-(9-(3-amino-6-(2-hydroxyphenyl)pyridazin-4-yl)-1-oxa-4,9-diazaspiro[5.5]undecan-4-yl)ethoxy)-7-azaspiro[3.5]nonan-7-yl)ethoxy)isoxazol-5-yl)-3-methylbutanoyl)-4-hydroxy-N-((S)-1-(4-(4-methylthiazol-5-yl)phenyl)ethyl)pyrrolidine-2-carboxamide], the 50% degradation concentration (DC50) under setting [1] is under 0.0025 µM. Under setting [3], the Dmax is over 75%.

Turning to `CC(=O)NCc1ncsc1-c1ccc([C@H](C)NC(=O)[C@@H]2C[C@@H](O)CN2C(=O)C(c2cc(OCCN3CCN(CCOc4cc(N5C6CCC5CN(c5cc(-c7ccccc7O)nnc5N)C6)ccn4)CC3)no2)C(C)C)cc1` (stereo partly drawn) [compound 174, (2S,4R)-N-((S)-1-(4-(4-(acetamidomethyl)thiazol-5-yl)phenyl)ethyl)-1-(2-(3-(2-(4-(2-((4-(3-(3-amino-6-(2-hydroxyphenyl)pyridazin-4-yl)-3,8-diazabicyclo[3.2.1]octan-8-yl)pyridin-2-yl)oxy)ethyl)piperazin-1-yl)ethoxy)isoxazol-5-yl)-3-methylbutanoyl)-4-hydroxypyrrolidine-2-carboxamide], the DC50 under setting [1] lay within 0.01 to 0.03 µM. Further, the Dmax under setting [2] was over 75%.

Regarding `Cc1ncsc1-c1ccc([C@H](C)NC(=O)[C@@H]2C[C@@H](O)CN2C(=O)[C@H](c2cc(N3CCC(CN4CCC(O[C@H]5C[C@H](Oc6cc(N7C8CCC7CN(c7cc(-c9ccccc9O)nnc7N)C8)ccn6)C5)CC4)CC3)no2)C(C)C)c(O)c1` [compound 696, (2S,4R)-1-((2S)-2-(3-(4-((4-((1r,3r)-3-((4-(3-(3-amino-6-(2-hydroxyphenyl)pyridazin-4-yl)-3,8-diazabicyclo[3.2.1]octan-8-yl)pyridin-2-yl)oxy)cyclobutoxy)piperidin-1-yl)methyl)piperidin-1-yl)isoxazol-5-y1)-3-methylbutanoyl)-4-hydroxy-N-((S)-1-(2-hydroxy-4-(4-methylthiazol-5-yl)phenyl)ethyl)pyrrolidine-2-carboxamide], the DC50 under setting [1] is over 0.03 µM.

With `Cc1ncsc1-c1ccc([C@H](C)NC(=O)[C@@H]2C[C@@H](O)CN2C(=O)[C@H](c2cc(N3CCC(OC4CCN(C[C@H]5C[C@H](Oc6cc(N7C8CCC7CN(c7cc(-c9ccccc9O)nnc7N)C8)ccn6)C5)CC4)CC3)no2)C(C)C)cc1` [compound 469, (2S,4R)-1-((2S)-2-(3-(4-((1-(((1r,3r)-3-((4-(3-(3-amino-6-(2-hydroxyphenyl)pyridazin-4-yl)-3,8-diazabicyclo[3.2.1]octan-8-yl)pyridin-2-yl)oxy)cyclobutyl)methyl)piperidin-4-yl)oxy)piperidin-1-yl)isoxazol-5-yl)-3-methylbutanoyl)-4-hydroxy-N-((S)-1-(4-(4-methylthiazol-5-yl)phenyl)ethyl)pyrrolidine-2-carboxamide], where the note is “target protein degradation, read-out: BRM DC50”, the DC50 is over 0.03 µM.

Turning to `CC(C)[C@@H](C(=O)N1C[C@H](O)C[C@H]1C(=O)N[C@@H](C)c1ccc(C(F)(F)F)cc1)c1cc(OCCN2CCC(O[C@H]3C[C@H](Oc4cc(N5C6CCC5CN(c5cc(-c7ccccc7O)nnc5N)C6)ccn4)C3)CC2)no1` [compound 248, (2S,4R)-1-((2R)-2-(3-(2-(4-((1r,3R)-3-((4-(3-(3-amino-6-(2-hydroxyphenyl)pyridazin-4-yl)-3,8-diazabicyclo[3.2.1]octan-8-yl)pyridin-2-yl)oxy)cyclobutoxy)piperidin-1-yl)ethoxy)isoxazol-5-yl)-3-methylbutanoyl)-4-hydroxy-N-((S)-1-(4-(trifluoromethyl)phenyl)ethyl) pyrrolidine-2-carboxamide], the half-maximal degradation concentration (DC50) under setting [1] was over 0.03 µM.

In the case of `Cc1ncsc1-c1ccc([C@H](C)NC(=O)[C@@H]2C[C@@H](O)CN2C(=O)[C@H](c2cc(O[C@H]3C[C@H](CN4CCC(O[C@H]5C[C@H](Oc6cc(N7C8CCC7CN(c7cc(-c9ccccc9O)nnc7N)C8)ccn6)C5)CC4)C3)no2)C(C)C)cc1` [compound 241, (2S,4R)-1-((2S)-2-(3-((1R,3S)-3-((4-((1r,3R)-3-((4-(3-(3-amino-6-(2-hydroxyphenyl)pyridazin-4-yl)-3,8-diazabicyclo[3.2.1]octan-8-yl)pyridin-2-yl)oxy)cyclobutoxy)piperidin-1-yl)methyl)cyclobutoxy)isoxazol-5-yl)-3-methylbutanoyl)-4-hydroxy-N-((S)-1-(4-(4-methylthiazol-5-yl)phenyl)ethyl)pyrrolidine-2-carboxamide], the 50% degradation concentration (DC50) under setting [1] lay within 0.0025 to 0.01 µM. Under setting [2], the Dmax was over 75%.

`Cc1ncsc1-c1cc(F)c([C@@H](C)NC(=O)[C@@H]2C[C@@H](O)CN2C(=O)[C@H](c2cc(OCCN3CCC(O[C@H]4C[C@H](Oc5cc(N6C7CCC6CN(c6cc(-c8ccccc8O)nnc6N)C7)ccn5)C4)CC3)no2)C(C)C)cn1` [compound 542, (2S,4R)-1-((2S)-2-(3-(2-(4-((1r,3S)-3-((4-(3-(3-amino-6-(2-hydroxyphenyl)pyridazin-4-yl)-3,8-diazabicyclo[3.2.1]octan-8-yl)pyridin-2-yl)oxy)cyclobutoxy)piperidin-1-yl)ethoxy)isoxazol-5-yl)-3-methylbutanoyl)-N-((R)-1-(4-fluoro-6-(4-methylthiazol-5-yl)pyridin-3-yl)ethyl)-4-hydroxypyrrolidine-2-carboxamide]: the DC50 (BRM degradation, SW1573 cells, Table 2D, read-out: *DC50) was over 0.03 µM.

Take `Cc1ncsc1-c1ccc([C@H](C)NC(=O)[C@@H]2C[C@@H](O)CN2C(=O)[C@H](c2cc(OCCOc3ccc(C(C)n4cc(-c5cc(-c6ccccc6O)nnc5N)cn4)cn3)no2)C(C)C)cc1` (stereo partly drawn) [compound 163, (2S,4R)-1-((2S)-2-(3-(2-((5-(1-(4-(3-amino-6-(2-hydroxyphenyl)pyridazin-4-yl)-1H-pyrazol-1-yl)ethyl)pyridin-2-yl)oxy)ethoxy)isoxazol-5-yl)-3-methylbutanoyl)-4-hydroxy-N-((S)-1-(4-(4-methylthiazol-5-yl)phenyl)ethyl)pyrrolidine-2-carboxamide]: the 50% degradation concentration (DC50) under setting [1] is under 0.0025 µM. Under setting [2], the Dmax is over 75%.

The values above are taken from patent US12539292B2, “BRM targeting compounds and associated methods of use” (Arvinas Operations, Inc., priority 2018, dated 2026).
